Drawing on patent US10844032B2, “Substituted benzofuran, benzothiophene and indole Mcl-1 inhibitors” (Vanderbilt University, priority 2012, dated 2020), this text covers Ki for 27 molecules.

Each structure is given as a SMILES string. A value given as a limit tells only on which side of the number the result lay.

recombinant Mcl-1 (residues 172-327), sequence (Q07820 172-327): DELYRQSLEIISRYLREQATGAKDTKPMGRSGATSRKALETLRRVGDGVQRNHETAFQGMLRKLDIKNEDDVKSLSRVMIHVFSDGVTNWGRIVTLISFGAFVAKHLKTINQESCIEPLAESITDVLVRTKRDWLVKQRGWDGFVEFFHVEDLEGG

The first assay addresses recombinant Mcl-1 (residues 172-327) (Homo sapiens (Human), UniProt Q07820). Briefly: Bak peptide fluorescence polarization anisotropy competition assay, Mcl-1. In kind it is binding. Particulars: Table 2, Ki range; FITC-Bak peptide 10 nM, Mcl-1 14 nM; read-out: Ki for inhibition of Mcl-1. (Polarisation of emitted light reports the rotation of a fluorescent probe.)
What is called Ki is a measure of affinity in units of concentration, obtained from inhibition or displacement. Consider `Cc1cc(OCCCc2c(C(=O)NS(=O)(=O)CCNC(=O)CCc3ccccc3)[nH]c3cc(Cl)ccc23)cc(C)c1Cl` [Example 230, 6-chloro-3-(3-(4-chloro-3,5-dimethylphenoxy)propyl)-N-((2-(3-phenylpropanamido)ethyl)sulfonyl)-1H-indole-2-carboxamide], for which the inhibition constant Ki was at most 0.1 µM.
In the case of `Cc1cc(OCCCc2c(C(=O)NS(=O)(=O)CCNC(=O)c3ccco3)[nH]c3cc(Cl)ccc23)cc(C)c1Cl` [Example 232, 6-chloro-3-(3-(4-chloro-3,5-dimethylphenoxy)propyl)-N-((2-(furan-2-carboxamido)ethyl)sulfonyl)-1H-indole-2-carboxamide], the inhibition constant Ki is at most 0.1 µM.
As for `Cc1cc(OCCCc2c(C(=O)NS(=O)(=O)CCNC(=O)c3cccn3C)[nH]c3cc(Cl)ccc23)cc(C)c1Cl` [Example 233, 6-chloro-3-(3-(4-chloro-3,5-dimethylphenoxy)propyl)-N-((2-(1-methyl-1H-pyrrole-2-carboxamido)ethyl)sulfonyl)-1H-indole-2-carboxamide], the Ki is at most 0.1 µM.
The same measure, in the same setting: the same measure for `Cc1cc(OCCCc2c(C(=O)NS(=O)(=O)CCNC(=O)[C@@H]3Cc4ccccc4N3)[nH]c3cc(Cl)ccc23)cc(C)c1Cl` [Example 237, (S)-6-chloro-3-(3-(4-chloro-3,5-dimethylphenoxy)propyl)-N-((2-(indoline-2-carboxamido)ethyl)sulfonyl)-1H-indole-2-carboxamide]: at most 0.1 µM; for `Cc1cc(OCCCc2c(C(=O)NS(=O)(=O)CCNC(=O)C(C)C)[nH]c3cc(Cl)ccc23)cc(C)c1Cl` [Example 253, 6-chloro-3-(3-(4-chloro-3,5-dimethylphenoxy)propyl)-N-((2-isobutyramidoethyl)sulfonyl)-1H-indole-2-carboxamide]: at most 0.1 µM.

The same assay, now with this note: read-out: Ki for inhibition of Mcl-1.
Consider `Cc1cc(OCCCc2c(C(=O)NS(=O)(=O)CCNC(=O)c3ccoc3C)[nH]c3cc(Cl)ccc23)cc(C)c1Cl` [Example 227, 6-chloro-3-(3-(4-chloro-3,5-dimethylphenoxy)propyl)-N-((2-(2-methylfuran-3-carboxamido)ethyl)sulfonyl)-1H-indole-2-carboxamide], for which the Ki is 0.101 to 0.299 µM.
The same measure, in the same setting: under `O=C(NS(=O)(=O)CCNC(=O)C1CCCCC1)c1[nH]c2cc(Cl)ccc2c1CCCOc1cccc2ccccc12` [Example 228, 6-chloro-N-((2-(cyclohexanecarboxamido)ethyl)sulfonyl)-3-(3-(naphthalen-1-yloxy)propyl)-1H-indole-2-carboxamide] stands 0.301 to 0.5 µM; under `Cc1occc1C(=O)NCCS(=O)(=O)NC(=O)c1[nH]c2cc(Cl)ccc2c1CCCOc1cccc2ccccc12` [Example 229, 6-chloro-N-((2-(2-methylfuran-3-carboxamido)ethyl)sulfonyl)-3-(3-(naphthalen-1-yloxy)propyl)-1H-indole-2-carboxamide], 0.301 to 0.5 µM; under `Cc1cc(OCCCc2c(C(=O)NS(=O)(=O)CCNC(=O)c3cccc(Oc4ccccc4)c3)[nH]c3cc(Cl)ccc23)cc(C)c1Cl` [Example 231, 6-chloro-3-(3-(4-chloro-3,5-dimethylphenoxy)propyl)-N-((2-(3-phenoxybenzamido)ethyl)sulfonyl)-1H-indole-2-carboxamide], 0.101 to 0.299 µM.
Same read-out and setting: the same measure for `Cc1cc(OCCCc2c(C(=O)NS(=O)(=O)CCNC(=O)Cc3cn(C)c4ccccc34)[nH]c3cc(Cl)ccc23)cc(C)c1Cl` [Example 235, 6-chloro-3-(3-(4-chloro-3,5-dimethylphenoxy)propyl)-N-((2-(2-(1-methyl-1H-indol-3-yl)acetamido)ethyl)sulfonyl)-1H-indole-2-carboxamide]: 0.101 to 0.299 µM; for `Cc1cc(OCCCc2c(C(=O)NS(=O)(=O)CCNC(=O)c3ccc4c(ccn4C)c3)[nH]c3cc(Cl)ccc23)cc(C)c1Cl` [Example 236, 6-chloro-3-(3-(4-chloro-3,5-dimethylphenoxy)propyl)-N-((2-(1-methyl-1H-indole-5-carboxamido)ethyl)sulfonyl)-1H-indole-2-carboxamide]: 0.101 to 0.299 µM; for `Cc1cc(OCCCc2c(C(=O)NS(=O)(=O)CCNC(=O)[C@@H]3Cc4ccccc4N3C)[nH]c3cc(Cl)ccc23)cc(C)c1Cl` [Example 238, (S)-6-chloro-3-(3-(4-chloro-3,5-dimethylphenoxy)propyl)-N-((2-(1-methylindoline-2-carboxamido)ethyl)sulfonyl)-1H-indole-2-carboxamide]: 0.101 to 0.299 µM.
For the molecule `O=C(NCCS(=O)(=O)NC(=O)c1[nH]c2cc(Cl)ccc2c1CCCOc1cccc2ccccc12)c1ccc2cc[nH]c2c1` [Example 239, N-((2-(1H-indole-6-carboxamido)ethyl)sulfonyl)-6-chloro-3-(3-(naphthalen-1-yloxy)propyl)-1H-indole-2-carboxamide], the Ki lay in the range of 0.301 to 0.5 µM.
Consider `O=C(CCc1ccccc1)NCCS(=O)(=O)NC(=O)c1[nH]c2cc(Cl)ccc2c1CCCOc1cccc2ccccc12` [Example 240, 6-chloro-3-(3-(naphthalen-1-yloxy)propyl)-N-((2-(3-phenylpropanamido)ethyl)sulfonyl)-1H-indole-2-carboxamide], for which the Ki fell in the range of 0.301 to 0.5 µM.
On to `Cc1cc(OCCCc2c(C(=O)NS(=O)(=O)CCNC(=O)c3cccn3Cc3ccccc3)[nH]c3cc(Cl)ccc23)cc(C)c1Cl` [Example 241, N-((2-(1-benzyl-1H-pyrrole-2-carboxamido)ethyl)sulfonyl)-6-chloro-3-(3-(4-chloro-3,5-dimethylphenoxy)propyl)-1H-indole-2-carboxamide], for which the Ki was in the range of 0.101 to 0.299 µM.
With `Cc1cc(OCCCc2c(C(=O)NS(=O)(=O)CCNC(=O)c3cccn3Cc3ccc(F)cc3)[nH]c3cc(Cl)ccc23)cc(C)c1Cl` [Example 242, 6-chloro-3-(3-(4-chloro-3,5-dimethylphenoxy)propyl)-N-((2-(1-(4-fluorobenzyl)-1H-pyrrole-2-carboxamido)ethyl)sulfonyl)-1H-indole-2-carboxamide], the Ki was in the range of 0.101 to 0.299 µM.
On to `Cc1cc(OCCCc2c(C(=O)NS(=O)(=O)CCNC(=O)c3cccn3Cc3cccc(Cl)c3)[nH]c3cc(Cl)ccc23)cc(C)c1Cl` [Example 243, 6-chloro-3-(3-(4-chloro-3,5-dimethylphenoxy)propyl)-N-((2-(1-(3-chlorobenzyl)-1H-pyrrole-2-carboxamido)ethyl)sulfonyl)-1H-indole-2-carboxamide], for which the inhibition constant Ki fell in the range of 0.301 to 0.5 µM.
On to `Cc1ccccc1Cn1cccc1C(=O)NCCS(=O)(=O)NC(=O)c1[nH]c2cc(Cl)ccc2c1CCCOc1cc(C)c(Cl)c(C)c1` [Example 244, 6-chloro-3-(3-(4-chloro-3,5-dimethylphenoxy)propyl)-N-((2-(1-(2-methylbenzyl)-1H-pyrrole-2-carboxamido)ethyl)sulfonyl)-1H-indole-2-carboxamide], for which the inhibition constant (Ki) was in the range of 0.301 to 0.5 µM.
Consider `Cc1cccc(Cn2cccc2C(=O)NCCS(=O)(=O)NC(=O)c2[nH]c3cc(Cl)ccc3c2CCCOc2cc(C)c(Cl)c(C)c2)c1` [Example 245, 6-chloro-3-(3-(4-chloro-3,5-dimethylphenoxy)propyl)-N-((2-(1-(3-methylbenzyl)-1H-pyrrole-2-carboxamido)ethyl)sulfonyl)-1H-indole-2-carboxamide], for which the Ki was 0.101 to 0.299 µM.
Consider `Cc1cc(OCCCc2c(C(=O)NS(=O)(=O)CCNC(=O)c3cccn3Cc3cccc(F)c3)[nH]c3cc(Cl)ccc23)cc(C)c1Cl` [Example 246, 6-chloro-3-(3-(4-chloro-3,5-dimethylphenoxy)propyl)-N-((2-(1-(3-fluorobenzyl)-1H-pyrrole-2-carboxamido)ethyl)sulfonyl)-1H-indole-2-carboxamide], for which the inhibition constant Ki lay within 0.101 to 0.299 µM.
For `COc1cccc(Cn2cccc2C(=O)NCCS(=O)(=O)NC(=O)c2[nH]c3cc(Cl)ccc3c2CCCOc2cc(C)c(Cl)c(C)c2)c1` [Example 247, 6-chloro-3-(3-(4-chloro-3,5-dimethylphenoxy)propyl)-N-((2-(1-(3-methoxybenzyl)-1H-pyrrole-2-carboxamido)ethyl)sulfonyl)-1H-indole-2-carboxamide], the inhibitory constant (Ki) fell in the range of 0.101 to 0.299 µM.
Same read-out and setting: the same measure for `Cc1cc(OCCCc2c(C(=O)NS(=O)(=O)CCNC(=O)c3cccn3Cc3ccccc3F)[nH]c3cc(Cl)ccc23)cc(C)c1Cl` [Example 248, 6-chloro-3-(3-(4-chloro-3,5-dimethylphenoxy)propyl)-N-((2-(1-(2-fluorobenzyl)-1H-pyrrole-2-carboxamido)ethyl)sulfonyl)-1H-indole-2-carboxamide]: 0.101 to 0.299 µM; for `COc1ccc(Cn2cccc2C(=O)NCCS(=O)(=O)NC(=O)c2[nH]c3cc(Cl)ccc3c2CCCOc2cc(C)c(Cl)c(C)c2)cc1` [Example 249, 6-chloro-3-(3-(4-chloro-3,5-dimethylphenoxy)propyl)-N-((2-(1-(4-methoxybenzyl)-1H-pyrrole-2-carboxamido)ethyl)sulfonyl)-1H-indole-2-carboxamide]: 0.101 to 0.299 µM; for `Cc1cc(OCCCc2c(C(=O)NS(=O)(=O)CCN3C(=O)c4ccccc4C3=O)[nH]c3cc(Cl)ccc23)cc(C)c1Cl` [Example 250, 6-chloro-3-(3-(4-chloro-3,5-dimethylphenoxy)propyl)-N-((2-(1,3-dioxoisoindolin-2-yl)ethyl)sulfonyl)-1H-indole-2-carboxamide]: 0.101 to 0.299 µM.
Regarding `CC(=O)NCCS(=O)(=O)NC(=O)c1[nH]c2cc(Cl)ccc2c1CCCOc1cc(C)c(Cl)c(C)c1` [Example 251, N-((2-acetamidoethyl)sulfonyl)-6-chloro-3-(3-(4-chloro-3,5-dimethylphenoxy)propyl)-1H-indole-2-carboxamide], the inhibition constant (Ki) was 0.101 to 0.299 µM.
Take `CCC(=O)NCCS(=O)(=O)NC(=O)c1[nH]c2cc(Cl)ccc2c1CCCOc1cc(C)c(Cl)c(C)c1` [Example 252, 6-chloro-3-(3-(4-chloro-3,5-dimethylphenoxy)propyl)-N-((2-propionamidoethyl)sulfonyl)-1H-indole-2-carboxamide]: the inhibitory constant (Ki) fell in the range of 0.101 to 0.299 µM.
Consider `Cc1cc(OCCCc2c(C(=O)NS(=O)(=O)CCNC(=O)C(F)(F)F)[nH]c3cc(Cl)ccc23)cc(C)c1Cl` [Example 254, 6-chloro-3-(3-(4-chloro-3,5-dimethylphenoxy)propyl)-N-((2-(2,2,2-trifluoroacetamido)ethyl)sulfonyl)-1H-indole-2-carboxamide], for which the Ki lay within 0.101 to 0.299 µM.
